In US9987255B2, “5,5-bicyclic oxazole orexin receptor antagonists” (Merck Sharp & Dohme Corp., priority 2014, dated 2018):

Tests used:
hOX1R = hOX1R (Homo sapiens, UniProt O43613); assay: FLIPR Ca2+ flux assay, orexin-1 receptor; type: cell-based; details: CHO cells expressing the receptor; agonist 70 pM Ala-6,12 orexin-A
[1] = biological target: human orexin-2 receptor (hOX2R) (Homo sapiens (Human), UniProt O43614); assay: FLIPR Ca2+ flux assay, orexin-2 receptor; type: cell-based; details: CHO cells expressing the receptor; agonist 70 pM Ala-6,12 orexin-A
Procedure: The utility of the compounds in accordance with the present invention as orexin receptor OX1R and/or OX2R antagonists may be readily determined without undue experimentation by methodology well known in the art, including the “FLIPR Ca^2+ Flux Assay” (Okumura et al., Biochem. Biophys. Res. Comm. 280:976-981, 2001). In a typical experiment the OX1 and OX2 receptor antagonistic activity of the compounds of the present invention was determined in accordance with the following experimental method. For intracellular calcium measurements, Chinese hamster ovary (CHO) cells expressing the rat orexin-1 receptor or the human orexin-2 receptor, are grown in Iscove's modified DMEM containing 2 mM L-glutamine, […], 1% hypoxanthine-thymidine supplement, 100 U/ml penicillin, 100 μg/ml streptomycin and 10% heat-inactivated fetal calf serum (FCS). The cells are seeded at 20,000 cells/well into Becton-Dickinson black 384-well clear bottom sterile plates coated with poly-D-lysine. All reagents were from GIBCO-Invitrogen Corp. The seeded plates are incubated overnight at 37° C. and 5% CO2. Ala-6,12 human orexin-A as the agonist is prepared as a 1 mM stock solution in 1% bovine serum albumin (BSA) and diluted in assay buffer (HBSS containing 20 mM HEPES, 0.1% BSA and 2.5 mM probenecid, pH7.4) for use in the assay at a final concentration of 70 pM. Test compounds are prepared as 10 mM stock solution in DMSO, then diluted in 384-well plates, first in DMSO, then assay buffer. On the day of the assay, cells are washed 3 times with 100 μl assay buffer and then incubated for 60 min (37° C., 5% CO2) in 60 μl assay buffer containing 1 μM Fluo-4AM ester, 0.02% pluronic acid, and 1% BSA. The dye loading solution is then aspirated and cells are washed 3 times with 100 μl assay buffer. 30 μl of that same buffer is left in each well. Within the Fluorescent Imaging Plate Reader (FLIPR, Molecular Devices), test compounds are added to the plate in a volume of 25 μl, incubated for 5 min and finally 25 μl of agonist is added. Fluorescence is measured for each well at 1 second intervals for 5 minutes and the height of each fluorescence peak is compared to the height of the fluorescence peak induced by 70 pM Ala-6,12 orexin-A with buffer in place of antagonist. For each antagonist, IC50 value (the concentration of compound needed to inhibit 50% of the agonist response) is determined. Alternatively, compound potency can be assessed by a radioligand binding assay (described in Bergman et. al. Bioorg. Med. Chem. Lett. 2008, 18, 1425-1430) in which the inhibition constant (Ki) is determined in membranes prepared from CHO cells expressing either the OX1 or OX2 receptor. The intrinsic orexin receptor antagonist activity of a compound which may be used in the present invention may be determined by these assays.

Sequence of human orexin-2 receptor (hOX2R) (O43614 whole entry): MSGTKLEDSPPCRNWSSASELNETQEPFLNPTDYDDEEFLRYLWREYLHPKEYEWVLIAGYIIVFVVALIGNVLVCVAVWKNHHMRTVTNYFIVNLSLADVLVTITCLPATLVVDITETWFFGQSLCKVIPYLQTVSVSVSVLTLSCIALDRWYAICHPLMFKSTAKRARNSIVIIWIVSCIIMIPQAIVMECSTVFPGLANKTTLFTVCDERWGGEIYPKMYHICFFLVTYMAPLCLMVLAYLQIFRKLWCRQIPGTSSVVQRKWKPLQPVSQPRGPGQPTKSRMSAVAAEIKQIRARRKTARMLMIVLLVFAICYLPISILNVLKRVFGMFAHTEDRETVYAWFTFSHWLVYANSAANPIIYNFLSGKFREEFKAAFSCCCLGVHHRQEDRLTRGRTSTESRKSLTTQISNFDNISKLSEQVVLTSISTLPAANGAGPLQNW

| SMILES | IC50 (hOX1R) [nM] | IC50 [1] [nM] |
| --- | --- | --- |
| Cc1oc(N2CC3CN(C(=O)c4ccccc4N4CCCC4)CC3C2)nc1C(C)(C)O (stereo not drawn) [Example 13, 2-(5-methyl-2-{5-[(2-pyrrolidin-1-ylphenyl)carbonyl]hexahydropyrrolo [3,4-c]pyrrol-2(1H)-yl}-1,3-oxazol-4-yl)propan-2-ol] | > 10000 | 49 |
| Cc1oc(N2CC3CN(C(=O)c4ccccc4OCC(F)(F)F)CC3C2)nc1C(C)(C)O (stereo not drawn) [Example 7, 2-{5-methyl-2-[5-{[2-(2,2,2-trifluoroethoxy)phenyl]carbonyl}hexahydropyrrolo[3,4-c]pyrrol-2(1H)-yl]-1,3-oxazol-4-yl} propan-2-ol] | > 10000 | 165 |
| Cc1oc(N2CC3CN(C(=O)c4ccc(F)cc4-n4nccn4)CC3C2)nc1C(C)(C)O (stereo not drawn) [Example 16, 2-{2-[5-{[4-fluoro-2-(2H-1,2,3-triazol-2-yl)phenyl]carbonyl}hexahydropyrrolo [3,4-c]pyrrol-2(1H)-yl]-5-methyl-1,3-oxazol-4-yl}propan-2-ol] | 3070 | 32 |
| Cc1oc(N2CC3CN(C(=O)c4ccccc4C4CC4)CC3C2)nc1C(C)(C)O (stereo not drawn) [Example 11, 2-(2-{5-[(2-cyclopropylphenyl)carbonyl]hexahydropyrrolo[3,4-c]pyrrol-2(1H)-yl}-5-methyl-1,3-oxazol-4-yl)propan-2-ol] | > 10000 | 87 |
| Cc1oc(N2CC3CN(C(=O)c4cccnc4-c4ccccc4)CC3C2)nc1C(C)(C)O (stereo not drawn) [Example 19, 2-(5-methyl-2-{5-[(2-phenylpyridin-3-yl)carbonyl]hexahydropyrrolo [3,4-c]pyrrol-2(1H)-yl}-1,3-oxazol-4-yl)propan-2-ol] | > 10000 | 60 |
| Cc1oc(N2CC3CN(C(=O)c4ncccc4-n4nccn4)CC3C2)nc1C(C)(C)O (stereo not drawn) [Example 17, 2-{5-methyl-2-[5-{(3-(2H-1,2,3-triazol-2-yl)pyridin-2-yl]carbonyl}hexahydropyrrolo[3,4-c]pyrrol-2(1H)-yl]-1,3-oxazol-4-yl}propan-2-ol] | > 10000 | 84 |
| Cc1oc(N2CC3CN(C(=O)c4cccnc4-n4cccn4)CC3C2)nc1C(C)(C)O (stereo not drawn) [Example 18, 2-{5-methyl-2-[5-{[2-(1H-pyrazol-1-yl)pyridin-3-yl]carbonyl}hexahydropyrrolo [3,4-c]pyrrol-2(1H)-yl]-1,3-oxazol-4-yl}propan-2-ol] | 9850 | 35 |
| Cc1oc(N2CC3CN(C(=O)c4nccnc4N4CCCC4)CC3C2)nc1C(C)(C)O (stereo not drawn) [Example 20, 2-(5-methyl-2-{5-[(3-pyrrolidin-1-ylpyrazin-2-yl)carbonyl]hexahydropyrrolo[3,4-c]pyrrol-2(1H)-yl}-1,3-oxazol-4-yl) propan-2-ol] | > 10000 | 252 |
| Cc1oc(N2CC3CN(C(=O)c4ccccc4-n4ncnn4)CC3C2)nc1C(C)(C)O (stereo not drawn) [Example 15, 2-{5-methyl-2-[5-{[2-(2H-tetrazol-2-yl)phenyl]carbonyl}hexahydropyrrolo [3,4-c]pyrrol-2(1H)-yl]-1,3-oxazol-4-yl}propan-2-ol] | > 10000 | 65 |
| Cc1oc(N2CC3CN(C(=O)c4ccccc4OC(F)F)CC3C2)nc1C(C)(C)O (stereo not drawn) [Example 22, 2-{2-[5-{[2-(difluoromethoxy)phenyl]carbonyl}hexahydropyrrolo[3,4-c]pyrrol-2(1H)-yl]-5-methyl-1,3-oxazol-4-yl} propan-2-ol] | > 10000 | 101 |
| Cc1oc(N2CC3CN(C(=O)c4cccnc4CC(F)(F)F)CC3C2)nc1C(C)(C)O (stereo not drawn) [Example 10] | > 10000 | 46 |
| CCOc1ncccc1C(=O)N1CC2CN(c3nc(C(C)(C)O)c(C)o3)CC2C1 (stereo not drawn) [Example 2, 2-(2-{5-[(2-Ethoxypyridin-3-yl)carbonyl]hexahydropyrrolo[3,4-c]pyrrol-2(1H)-yl}-5-methyl-1,3-oxazol-4-yl)propan-2-ol] | > 10000 | 545 |
| Cc1oc(N2CC3CN(C(=O)c4cccnc4OCC(F)(F)F)CC3C2)nc1C(C)(C)O (stereo not drawn) [Example 3, 2-{5-methyl-2-[5-{[2-(2,2,2-trifluoroethoxy)pyridin-3-yl]carbonyl}hexahydropyrrolo [3,4-c]pyrrol-2(1H)-yl]-1,3-oxazol-4-yl}propan-2-ol] | > 10000 | 106 |
| CCCc1ccccc1C(=O)N1CC2CN(c3nc(C(C)(C)O)c(C)o3)CC2C1 (stereo not drawn) [Example 6, 2-(5-methyl-2-{5-[(2-propylphenyl)carbonyl]hexahydropyrrolo[3,4-c]pyrrol-2(1H)-yl}-1,3-oxazol-4-yl)propan-2-ol] | > 10000 | 32 |
| Cc1oc(N2CC3CN(C(=O)c4ccccc4-n4cccn4)CC3C2)nc1C(C)(C)O (stereo not drawn) [Example 14, 2-{5-methyl-2-[5-{(2-(1H-pyrazol-1-yl)phenyl]carbonyl}hexahydropyrrolo [3,4-c]pyrrol-2(1H)-yl]-1,3-oxazol-4-yl}propan-2-ol] | > 10000 | 72 |
| Cc1oc(N2CC3CN(C(=O)c4nccnc4-n4cccn4)CC3C2)nc1C(C)(C)O (stereo not drawn) [Example 21, 2-{5-methyl-2-[5-{[3-(1H-pyrazol-1-yl)pyrazin-2-yl]carbonyl}hexahydropyrrolo[3,4-c]pyrrol-2(1H)-yl]-1,3-oxazol-4-yl} propan-2-ol] | > 10000 | 112 |
| Cc1oc(N2CC3CN(C(=O)c4ccccc4CC(F)(F)F)CC3C2)nc1C(C)(C)O (stereo not drawn) [Example 23, 2-{5-methyl-2-[5-{(2-(2,2,2-trifluoroethyl)phenyl]carbonyl}hexahydropyrrolo[3,4-c]pyrrol-2(1H)-yl]-1,3-oxazol-4-yl} propan-2-ol] | > 10000 | 230 |
| Cc1oc(N2CC3CN(C(=O)c4cccnc4OC(C)C)CC3C2)nc1C(C)(C)O (stereo not drawn) [Example 8, 2-{5-methyl-2-[5-{[2-(1-methylethoxy)pyriddin-3-yl]carbonyl}hexahydropyrrolo [3,4-c]pyrrol-2(1H)-yl]-1,3-oxazol-4-yl}propan-2-ol] | > 10000 | 126 |
| Cc1oc(N2CC3CN(C(=O)c4ccccc4-n4nccn4)CC3C2)nc1C(C)(C)O (stereo not drawn) [Example 1, (2-(2H-1,2,3-triazol-2-yl)phenyl)(5-(4-(2-hydroxypropan-2-yl)-5-methyloxazol-2-yl)hexahydropyrrolo[3,4-c]pyrrol-2(1H)-yl)methanone] | 6880 | 27 |
| Cc1oc(N2CC3CN(C(=O)c4ccccc4C4CCC4)CC3C2)nc1C(C)(C)O (stereo not drawn) [Example 12, 2-(2-{5-[(2-cyclobutylphenyl)carbonyl]hexahydropyrrolo[3,4-c]pyrrol-2(1H)-yl}-5-methyl-1,3-oxazol-4-yl)propan-2-ol] | 5300 | 23 |
| Cc1oc(N2CC3CN(C(=O)c4ccccc4C4CC4(F)F)CC3C2)nc1C(C)(C)O (stereo not drawn) [Example 24, 2-{2-[5-{[2-(2,2-difluorocyclopropyl)phenyl]carbonyl}hexahydropyrrolo[3,4-c]pyrrol-2(1H)-yl]-5-methyl-1,3-oxazol-4-yl}propan-2-ol] | > 10000 | 22 |
| Cc1oc(N2CC3CN(C(=O)c4ccccc4OC(F)(F)F)CC3C2)nc1C(C)(C)O (stereo not drawn) [Example 4, 2-{5-methyl-2-[5-{[2-(trifluoromethoxy)phenyl]carbonyl}hexahydropyrrolo[3,4-c]pyrrol-2(1H)-yl]-1,3-oxazol-4-yl} propan-2-ol] | > 10000 | 604 |
| Cc1oc(N2CC3CN(C(=O)c4ncccc4-c4ccccc4)CC3C2)nc1C(C)(C)O (stereo not drawn) [Example 5, 2-(5-methyl-2-{5-[(3-phenylpyridin-2-yl)carbonyl]hexahydropyrrolo[3,4-c]pyrrol-2(1H)-yl}-1,3-oxazol-4-yl) propan-2-ol] | > 10000 | 583 |
| Cc1oc(N2CC3CN(C(=O)c4cccnc4OCC(F)F)CC3C2)nc1C(C)(C)O (stereo not drawn) [Example 9, 2-{2-[5-{[2-(2,2-difluoroethoxy)pyridin-3-yl]carbonyl}hexahydropyrrolo [3,4-c]pyrrol-2(1H)-yl]-5-methyl-1,3-oxazol-4-yl} propan-2-ol] | > 10000 | 312 |
